Reference: the NIST ThermoML archive (doi:10.1021/je050085p)

Key:
[1] = excess molar enthalpy (molar enthalpy of mixing); xn = mol fraction of the nth substance listed; settings: 308.15 K, 101 kPa, Liquid, Flow calorimetry
[2] = refractive index (Na D-line) (dimensionless); xn = mol fraction of the nth substance listed; settings: 308.15 K, 101 kPa, Liquid, Standard Abbe refractometry
[3] = xn = mol fraction of the nth substance listed; settings: 308.15 K, 101 kPa, Liquid
[4] = 308.15 K; 101.33 kPa; Liquid
[5] = refractive index (Na D-line) (dimensionless); settings: 101.33 kPa, Liquid, Standard Abbe refractometry

OCCCc1ccccc1 [3-phenyl-1-propanol] + COc1ccccc1
Settings	excess molar enthalpy [kcal/mol]	mass density [kg/m3]	refractive index
[1], x2 = 0.0493	0.0303	–	–
[1], x2 = 0.094	0.059	–	–
[1], x2 = 0.1347	0.0863	–	–
[1], x2 = 0.1719	0.107	–	–
[1], x2 = 0.2374	0.145	–	–
[1], x2 = 0.2934	0.171	–	–
[1], x2 = 0.3838	0.205	–	–
[1], x2 = 0.4536	0.224	–	–
[1], x2 = 0.5547	0.246	–	–
[1], x2 = 0.6514	0.261	–	–
[1], x2 = 0.7136	0.265	–	–
[1], x2 = 0.7889	0.258	–	–
[1], x2 = 0.8328	0.239	–	–
[1], x2 = 0.877	0.207	–	–
[1], x2 = 0.9088	0.175	–	–
[1], x2 = 0.9373	0.133	–	–
[1], x2 = 0.9676	0.0777	–	–
[2], x2 = 0.0579	–	–	1.5208
[2], x2 = 0.1201	–	–	1.5201
[2], x2 = 0.2636	–	–	1.5186
[2], x2 = 0.384	–	–	1.5173
[2], x2 = 0.4475	–	–	1.5166
[2], x2 = 0.5551	–	–	1.5154
[2], x2 = 0.6495	–	–	1.5142
[2], x2 = 0.7477	–	–	1.5129
[2], x2 = 0.8274	–	–	1.5118
[2], x2 = 0.8652	–	–	1.5113
[2], x2 = 0.913	–	–	1.5108
[2], x2 = 0.9588	–	–	1.5101
[3], x2 = 0.0579	–	990.46	–
[3], x2 = 0.1201	–	989.91	–
[3], x2 = 0.2636	–	988.55	–
[3], x2 = 0.384	–	987.28	–
[3], x2 = 0.4475	–	986.57	–
[3], x2 = 0.5551	–	985.27	–
[3], x2 = 0.6495	–	984.07	–
[3], x2 = 0.7477	–	982.78	–
[3], x2 = 0.8274	–	981.73	–
[3], x2 = 0.8652	–	981.26	–
[3], x2 = 0.913	–	980.67	–
[3], x2 = 0.9588	–	980.14	–

OCc1ccccc1 [benzenemethanol] + COc1ccccc1
Settings	excess molar enthalpy [kcal/mol]	mass density [kg/m3]	refractive index
[1], x2 = 0.038	0.022	–	–
[1], x2 = 0.0732	0.0461	–	–
[1], x2 = 0.1059	0.0655	–	–
[1], x2 = 0.1364	0.0877	–	–
[1], x2 = 0.1916	0.121	–	–
[1], x2 = 0.2401	0.148	–	–
[1], x2 = 0.3216	0.182	–	–
[1], x2 = 0.3871	0.203	–	–
[1], x2 = 0.4866	0.232	–	–
[1], x2 = 0.5872	0.249	–	–
[1], x2 = 0.6547	0.254	–	–
[1], x2 = 0.7398	0.252	–	–
[1], x2 = 0.7913	0.24	–	–
[1], x2 = 0.8505	0.211	–	–
[1], x2 = 0.8835	0.185	–	–
[1], x2 = 0.9191	0.146	–	–
[1], x2 = 0.9578	0.0877	–	–
[2], x2 = 0.0519	–	–	1.5335
[2], x2 = 0.0898	–	–	1.5324
[2], x2 = 0.1854	–	–	1.5298
[2], x2 = 0.2883	–	–	1.527
[2], x2 = 0.3766	–	–	1.5247
[2], x2 = 0.4911	–	–	1.5218
[2], x2 = 0.5916	–	–	1.5193
[2], x2 = 0.6747	–	–	1.5173
[2], x2 = 0.7745	–	–	1.5149
[2], x2 = 0.9039	–	–	1.5118
[2], x2 = 0.9448	–	–	1.5108
[2], x2 = 0.9723	–	–	1.5102
[3], x2 = 0.0519	–	1030.85	–
[3], x2 = 0.0898	–	1028.81	–
[3], x2 = 0.1854	–	1023.62	–
[3], x2 = 0.2883	–	1018	–
[3], x2 = 0.3766	–	1013.19	–
[3], x2 = 0.4911	–	1006.94	–
[3], x2 = 0.5916	–	1001.47	–
[3], x2 = 0.6747	–	996.96	–
[3], x2 = 0.7745	–	991.59	–
[3], x2 = 0.9039	–	984.73	–
[3], x2 = 0.9448	–	982.58	–
[3], x2 = 0.9723	–	981.14	–

OCCCc1ccccc1 [3-phenyl-1-propanol]
Settings	mass density [kg/m3]
[4]	991.01

[5]
Settings	refractive index
298.15 K	1.5259
308.15 K	1.5214
